# Reference: US20020137929A1, “1 - (3-heterocyclylphenyl) isothiourea, -isourea, -guanidine and -amidine herbicidal agents” (Intellectual Property Department, BASF Aktiengesellschaft, priority 1998, published 2002)
# Tests used:
# MOOVA (Monochoria) = experiment: Postemergence weed control under flooded paddy conditions; assay type: in vivo, Monochoria vaginalis; details: postemergence weeds
# From the text: Results of herbicide evaluation are expressed on a rating scale (0-9). The scale is based upon a visual observation of plant stand, vigor, malformation, size, chlorosis and overall plant appearance as compared with a control.
# Plastic containers containing weeds which are 3 to 5 cm tall and rice seedlings at the 1.5 to 2.5 leaf stage are flooded with water. The water is maintained at 1.5 to 3 cm above the soil surface for the duration of the experiment. Test compounds are applied as aqueous/ acetone mixtures 50/50 v/v directly into the flood water to provide the equivalent of about 0.0313 to 0.500 kg/ha of active ingredient. The treated containers are placed on greenhouse benches and cared for in accordance with conventional greenhouse procedures. Three to four weeks after treatment, the test is terminated and each container is examined and herbicidal effect rated according to the rating system provided in Example 37. The compounds evaluated are reported by compound number given in Example 37.
# [1] = tested on: GLXMAW (Soybean, Williams); experiment: Preemergence herbicidal evaluation; assay type: in vivo, Glycine max, (L.) Merr. cv Williams; details: rated 4-5 weeks after treatment; for GLXMAW rating: preemergence, 0-9 scale
# Summary of the method: (§1)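 Seeds were planted in potting soil in cups, then sprayed preemergence with the test compound in aqueous acetone at about 0.0156 to 0.500 kg per hectare. Cups were kept under greenhouse conditions and visually rated 4–5 weeks after treatment on a 0–9 scale against an untreated control.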
# [2] = tested on: TRZAWR (Wheat, Winter, cv Riband); experiment: Preemergence herbicidal evaluation; assay type: in vivo, Triticum aestivum; details: rated 4-5 weeks after treatment; for TRZAWR rating: preemergence, 0-9 scale
# Summary of the method: as §1
# ORYSAT (Rice, Tebonnet) = experiment: Preemergence herbicidal evaluation; assay type: in vivo, Oryza sativa, (L.) Tebonnet; details: rated 4-5 weeks after treatment; for ORYSAT rating: preemergence, 0-9 scale
# Summary of the method: as §1
# CASOB (Sicklepod) = experiment: Postemergence herbicidal evaluation; assay type: in vivo, Cassia obtusifolia; details: for CASOB herbicidal rating / herbicidal rating CASOB: postemergence
# Summary of the method: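 First, seedlings were raised for around two weeks. Next, test material in 50/50 acetone/water containing 0.5% TWEEN 20 was sprayed through a nozzle at 40 psi, equivalent to about 0.0156–0.500 kg/ha. Finally, after 4–5 weeks in the greenhouse, plants were rated 0–9.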
# [3] = tested on: SAGPY (Arrowhead (Pygmaea)); experiment: Preemergence weed control under flooded paddy conditions; assay type: in vivo, Sagittaria pygmaea; details: rated 3-4 weeks after treatment
# Summary of the method: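 Using flooded silt loam (water 1.5 to 3 cm deep), seeds sown in the top 0.5 cm were exposed preemergence to compound pipetted into the flood at about 0.0313 to 0.500 kg/ha. Effects were scored 0-9 by eye three to four weeks later.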
# [4] = rate 0.0625 kg/ha, rating scale 0-9
# [5] = rate 0.1250 kg/ha, rating scale 0-9
# [6] = rate 0.2500 kg/ha, rating scale 0-9
structure (smiles),measurement,setting,value
"CN1C(=O)C(CC(=O)NS(C)(=O)=O)SC1=Nc1cc(-n2c(=O)cc(C(F)(F)F)n(C)c2=O)c(F)cc1Cl (centres unmarked) [Compound 97, 2-{{2-Chloro-5-[3,6-dihydro-3-methyl-2,6-dioxo-4-(trifluoromethyl)-1(2H)-pyrimidinyl]-4-fluorophenyl}imino}-3-methyl-N-(methylsulfonyl)-4-oxo-5-thiazolidineacetamide]",Herbicidal rating MOOVA,"MOOVA (Monochoria); Rate 0.0313 kg/ha, rated 3 to 4 weeks after treatment",9.0
same,Herbicidal rating MOOVA,"MOOVA (Monochoria); Rate 0.0625 kg/ha, rated 3 to 4 weeks after treatment",9.0
same,Herbicidal rating MOOVA,"MOOVA (Monochoria); Rate 0.1250 kg/ha, rated 3 to 4 weeks after treatment",9.0
same,Herbicidal rating MOOVA,"MOOVA (Monochoria); Rate 0.2500 kg/ha, rated 3 to 4 weeks after treatment",9.0
same,GLXMAW rating,[1]; 0.1250 kg/ha,0.0
same,GLXMAW rating,[1]; 0.2500 kg/ha,0.0
same,GLXMAW rating,[1]; 0.5000 kg/ha,3.0
same,TRZAWR rating,[2]; 0.1250 kg/ha,0.0
same,TRZAWR rating,[2]; 0.2500 kg/ha,1.0
same,TRZAWR rating,[2]; 0.5000 kg/ha,2.0
same,ORYSAT rating,"ORYSAT (Rice, Tebonnet); 0.1250 kg/ha",0.0
same,ORYSAT rating,"ORYSAT (Rice, Tebonnet); 0.2500 kg/ha",1.0
same,ORYSAT rating,"ORYSAT (Rice, Tebonnet); 0.5000 kg/ha",1.0
same,CASOB herbicidal rating,CASOB (Sicklepod); rate 0.0156 kg/ha,0.0
same,CASOB herbicidal rating,CASOB (Sicklepod); rate 0.0313 kg/ha,0.0
same,CASOB herbicidal rating,CASOB (Sicklepod); rate 0.0625 kg/ha,0.0
same,CASOB herbicidal rating,CASOB (Sicklepod); rate 0.1250 kg/ha,1.0
"COCCN1C(=O)CSC1=Nc1cc(-n2c(=O)cc(C(F)(F)F)n(C)c2=O)c(F)cc1Cl [Compound 155, 3-{4-Chloro-2-fluoro-5-{[3-(2-methoxyethyl)-4-oxo-2-thiazolidinylidene]amino}phenyl}-1-methyl-6-(trifluoromethyl)-2,4(1H,3H)-pyrimidinedione]",Preemergence herbicidal rating GLXMAW,[1]; [4],0.0
same,Preemergence herbicidal rating GLXMAW,[1]; [5],0.0
same,Preemergence herbicidal rating GLXMAW,[1]; [6],4.0
same,Preemergence herbicidal rating TRZAWR,[2]; [4],0.0
same,Preemergence herbicidal rating TRZAWR,[2]; [5],0.0
same,Preemergence herbicidal rating TRZAWR,[2]; [6],0.0
same,"herbicidal effect rating, SAGPY",[3]; 0.0313 kg/ha,0.0
same,"herbicidal effect rating, SAGPY",[3]; 0.0625 kg/ha,0.0
same,"herbicidal effect rating, SAGPY",[3]; 0.1250 kg/ha,0.0
same,"herbicidal effect rating, SAGPY",[3]; 0.2500 kg/ha,0.0
same,Preemergence herbicidal rating ORYSAT,"ORYSAT (Rice, Tebonnet); [4]",0.0
same,Preemergence herbicidal rating ORYSAT,"ORYSAT (Rice, Tebonnet); [5]",0.0
same,Preemergence herbicidal rating ORYSAT,"ORYSAT (Rice, Tebonnet); [6]",2.0
same,herbicidal rating CASOB,CASOB (Sicklepod); rate 0.0156 kg/ha,0.0
same,herbicidal rating CASOB,CASOB (Sicklepod); rate 0.0313 kg/ha,0.0
same,herbicidal rating CASOB,CASOB (Sicklepod); rate 0.0625 kg/ha,0.0
"C=CCN1C(=O)C(CC(=O)Nc2ccccc2)SC1=Nc1cc(-n2c(=O)cc(C(F)(F)F)n(C)c2=O)c(F)cc1Cl (centres unmarked) [Compound 44, 3-Allyl-2-{{2-chloro-5-[3,6-dihydro-3-methyl-2,6-dioxo-4-(trifluoromethyl)-1(2H)-pyrimidinyl]-4-fluorophenyl}imino}-4-oxo-5-thiazolidineacetanilide]",Herbicidal rating MOOVA,"MOOVA (Monochoria); rate 0.0313 kg/ha, 3-4 weeks after treatment",4.0
same,Herbicidal rating MOOVA,"MOOVA (Monochoria); rate 0.0625 kg/ha, 3-4 weeks after treatment",4.0
same,Herbicidal rating MOOVA,"MOOVA (Monochoria); rate 0.1250 kg/ha, 3-4 weeks after treatment",7.0
same,Herbicidal rating MOOVA,"MOOVA (Monochoria); rate 0.2500 kg/ha, 3-4 weeks after treatment",9.0
same,Preemergence herbicidal rating GLXMAW,[1]; rate 0.0156 kg/ha,0.0
same,Preemergence herbicidal rating GLXMAW,[1]; rate 0.0313 kg/ha,0.0
same,Preemergence herbicidal rating GLXMAW,[1]; rate 0.0625 kg/ha,0.0
same,Preemergence herbicidal rating GLXMAW,[1]; rate 0.1250 kg/ha,0.0
same,Preemergence herbicidal rating GLXMAW,[1]; rate 0.2500 kg/ha,0.0
same,Preemergence herbicidal rating GLXMAW,[1]; rate 0.5000 kg/ha,0.0
same,Preemergence herbicidal rating TRZAWR,[2]; rate 0.0156 kg/ha,0.0
same,Preemergence herbicidal rating TRZAWR,[2]; rate 0.0313 kg/ha,0.0
same,Preemergence herbicidal rating TRZAWR,[2]; rate 0.0625 kg/ha,0.0
same,Preemergence herbicidal rating TRZAWR,[2]; rate 0.1250 kg/ha,0.0
same,Preemergence herbicidal rating TRZAWR,[2]; rate 0.2500 kg/ha,0.0
same,Preemergence herbicidal rating TRZAWR,[2]; rate 0.5000 kg/ha,0.0
same,Preemergence herbicidal rating ORYSAT,"ORYSAT (Rice, Tebonnet); rate 0.0156 kg/ha",0.0
same,Preemergence herbicidal rating ORYSAT,"ORYSAT (Rice, Tebonnet); rate 0.0313 kg/ha",0.0
same,Preemergence herbicidal rating ORYSAT,"ORYSAT (Rice, Tebonnet); rate 0.0625 kg/ha",0.0
same,Preemergence herbicidal rating ORYSAT,"ORYSAT (Rice, Tebonnet); rate 0.1250 kg/ha",0.0
same,Preemergence herbicidal rating ORYSAT,"ORYSAT (Rice, Tebonnet); rate 0.2500 kg/ha",0.0
same,Preemergence herbicidal rating ORYSAT,"ORYSAT (Rice, Tebonnet); rate 0.5000 kg/ha",0.0
same,Postemergence herbicidal rating CASOB,CASOB (Sicklepod); Rate 0.0156 kg/ha,0.0
same,Postemergence herbicidal rating CASOB,CASOB (Sicklepod); Rate 0.0313 kg/ha,0.0
same,Postemergence herbicidal rating CASOB,CASOB (Sicklepod); Rate 0.0625 kg/ha,2.0
same,Postemergence herbicidal rating CASOB,CASOB (Sicklepod); Rate 0.1250 kg/ha,2.0
